# Where a name gives a salt, the structure may show the parent alone.
# Key:
# [1] = Toxicity (LD50); settings: in vivo
# Source text: Toxicity of the trisodium salt of (6R,7R)-7-[(Z)-2-(2-amino-4-[…])-2-[(1-carboxy-1-methylethoxy)imino]acetamido]-3-[[(2,5-dihydro-6-hydroxy-2-methyl-5-oxo-as-triazin-3-yl)thio]methyl]-8-oxo-5-thia-1-azabicyclo[4.2.0]oct-2-ene-2-carboxylic acid: […]
# [2] = test system: Pseudomonas aeruginosa; assay: in vitro activity against 15 strains of Pseudomonas aeruginosa (minimum inhibitory concentration); format: cell-based
# Source text: Results (as MIC=minimum inhibitory concentration in μg/ml): […]
smiles,measurement,setting,value
"Cn1nc(O)c(=O)nc1SCC1=C(C(=O)O)N2C(=O)[C@@H](NC(=O)/C(=N\OC(C)(C)C(=O)O)c3csc(N)n3)[C@H]2SC1 [Example 1, trisodium salt of (6R,7R)-7-[(Z)-2-(2-amino-4-thiazolyl)-2-[(1-carboxy-1-methylethoxy)imino]acetamido]-3-[[(2,5-dihydro-6-hydroxy-2-methyl-5-oxo-as-triazin-3-yl)thio]methyl]-8-oxo-5-thia-1-azabicyclo[4.2.0]oct-2-ene-2-carboxylic acid]",LD50,[1]; iv,> 1000 mg/kg
same,LD50,[1]; po,> 4000 mg/kg
same,LD50,[1]; sc,> 4000 mg/kg
same,MIC,"[2]; P. aeruginosa strain 1, in vitro",6.3 µg/mL
same,MIC,"[2]; P. aeruginosa strain 2, in vitro",1.6 µg/mL
same,MIC,"[2]; P. aeruginosa strain 3, in vitro",1.6 µg/mL
same,MIC,"[2]; P. aeruginosa strain 4, in vitro",1.6 µg/mL
same,MIC,"[2]; P. aeruginosa strain 5, in vitro",1.6 µg/mL
same,MIC,"[2]; P. aeruginosa strain 6, in vitro",1.6 µg/mL
same,MIC,"[2]; P. aeruginosa strain 7, in vitro",1.6 µg/mL
same,MIC,"[2]; P. aeruginosa strain 8, in vitro",25 µg/mL
same,MIC,"[2]; P. aeruginosa strain 9, in vitro",3.1 µg/mL
same,MIC,"[2]; P. aeruginosa strain 10, in vitro",1.6 µg/mL
same,MIC,"[2]; P. aeruginosa strain 11, in vitro",0.8 µg/mL
same,MIC,"[2]; P. aeruginosa strain 12, in vitro",1.6 µg/mL
same,MIC,"[2]; P. aeruginosa strain 13, in vitro",1.6 µg/mL
same,MIC,"[2]; P. aeruginosa strain 14, in vitro",1.6 µg/mL
same,MIC,"[2]; P. aeruginosa strain 15, in vitro",1.6 µg/mL

# Reference: patent US4431804A, “Thiazolylacetamido compounds” (Hoffmann-La Roche Inc., priority 1981, dated 1984)
